Test results taken from patent US20120329826A1, “SUBSTITUTED-5-AMINOPYRROLO/PYRAZOLOPYRIDINES” (OSI Pharmaceuticals,. LLC, priority 2010, published 2012).
pIC50: −log10 of the molar value. Structures can show the parent of a compound that is named as a salt.

Tests used:
MET (human) = MET (human) (Homo sapiens, UniProt P08581); experiment: MET (human)-Km of ATP AlphaScreen kinase assay; conditions: biochemical, ATP at Km
Protocol: MET (human)-Km of ATP: MET assay is performed in a 384 well assay containing 200 ng/μL biotinylated poly(Glu, Tyr), 0.334 mM vanadate, desired concentration of ATP optimized for the enzyme in assay buffer (50 mM HEPES (pH=7.4), 5 mM MgCl2, 5 mM MnCl2, and 1% glycerol). Desired compound is added in a final concentration of 1% DMSO with control being vehicle of DMSO alone. MET is diluted to the optimized concentration (optimized on a lot-by-lot basis) in an enzyme diluent buffer (50 mM Tris pH=7.4, 1% glycerol, 0.03% Brij35, 0.24 mM EGTA, 1 mM DTT, and 0.003% BSA). Enzyme is added to initiate the reaction and incubated for 60 min at RT. In subdued light, appropriate amount of PT66 donor and acceptor beads (diluted 1:260 from manufacturer's provision in a 25 mM Tris HCl (pH=7.5), 400 mM NaCl, 100 mM EDTA, 0.3% BSA buffer) are added to the wells. The plates, incubated for 1 h, are read on an AlphaQuest plate reader

RON (human) = RON (human) (Homo sapiens, UniProt Q04912); experiment: RON (human)-Km of ATP AlphaScreen kinase assay; conditions: biochemical, ATP at Km
RON (human), sequence (Q04912 25-1400): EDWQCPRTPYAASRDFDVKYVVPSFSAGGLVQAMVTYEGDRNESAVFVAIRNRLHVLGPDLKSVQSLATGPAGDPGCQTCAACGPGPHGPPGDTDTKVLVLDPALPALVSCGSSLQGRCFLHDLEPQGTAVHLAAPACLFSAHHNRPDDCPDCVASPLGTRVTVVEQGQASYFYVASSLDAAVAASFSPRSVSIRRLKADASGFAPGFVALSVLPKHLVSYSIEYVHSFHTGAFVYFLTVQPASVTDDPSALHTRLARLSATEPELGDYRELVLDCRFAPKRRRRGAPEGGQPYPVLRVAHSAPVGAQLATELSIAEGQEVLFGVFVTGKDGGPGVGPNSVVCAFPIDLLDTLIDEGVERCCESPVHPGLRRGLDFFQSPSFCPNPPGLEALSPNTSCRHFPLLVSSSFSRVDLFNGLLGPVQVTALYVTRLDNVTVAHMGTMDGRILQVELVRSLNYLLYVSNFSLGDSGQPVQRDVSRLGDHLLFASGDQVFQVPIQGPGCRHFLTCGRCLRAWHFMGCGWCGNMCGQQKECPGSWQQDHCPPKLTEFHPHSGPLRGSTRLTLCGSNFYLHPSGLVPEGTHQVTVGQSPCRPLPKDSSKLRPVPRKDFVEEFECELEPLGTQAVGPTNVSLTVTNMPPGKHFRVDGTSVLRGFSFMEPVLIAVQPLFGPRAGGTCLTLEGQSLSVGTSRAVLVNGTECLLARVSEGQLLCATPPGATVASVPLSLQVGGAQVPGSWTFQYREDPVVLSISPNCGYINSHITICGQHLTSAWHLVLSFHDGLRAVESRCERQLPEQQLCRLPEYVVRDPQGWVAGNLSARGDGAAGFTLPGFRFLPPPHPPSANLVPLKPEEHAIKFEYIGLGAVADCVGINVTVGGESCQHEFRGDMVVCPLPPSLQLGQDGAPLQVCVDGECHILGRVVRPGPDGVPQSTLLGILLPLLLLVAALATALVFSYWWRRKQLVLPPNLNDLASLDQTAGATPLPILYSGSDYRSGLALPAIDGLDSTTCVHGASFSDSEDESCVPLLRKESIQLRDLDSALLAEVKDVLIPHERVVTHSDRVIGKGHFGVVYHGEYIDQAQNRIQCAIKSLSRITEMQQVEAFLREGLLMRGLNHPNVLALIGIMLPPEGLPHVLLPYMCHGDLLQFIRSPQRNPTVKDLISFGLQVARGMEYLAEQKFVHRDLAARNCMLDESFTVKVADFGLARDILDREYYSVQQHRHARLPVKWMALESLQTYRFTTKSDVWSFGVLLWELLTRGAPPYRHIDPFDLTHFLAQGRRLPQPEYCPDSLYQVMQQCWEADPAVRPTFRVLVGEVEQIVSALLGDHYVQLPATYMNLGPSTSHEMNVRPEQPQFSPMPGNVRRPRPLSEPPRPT
Protocol: RON (human)-Km of ATP: RON assay is performed in a 384 well assay containing 200 ng/μL biotinylated poly(Glu, Tyr), 0.334 mM vanadate, desired concentration of ATP optimized for the enzyme in assay buffer (50 mM HEPES (pH=7.4), 12.5 mM MgCl2 and 1% glycerol). Desired compound is added in a final concentration of 1% DMSO with control being vehicle of DMSO alone. RON is diluted to the optimized (on a lot-by-lot basis) concentration in an enzyme diluent buffer (50 mM HEPES pH=7.4, 12.5 mM MgCl2 and 1% glycerol, 0.03% Brij35, 0.3 mM EGTA, 1 mM DTT, and 0.003% BSA). Enzyme is added to initiate the reaction and incubated for 30 min at RT. In subdued light, appropriate amount of PT66 donor and acceptor beads (diluted 1:260 from manufacturer's provision in a 25 mM Tris HCl (pH=7.5), 200 mM NaCl, 100 mM EDTA, 0.3% BSA buffer) are added to the wells. The plates, incubated for 1 h, are read on an AlphaQuest plate reader.

MET (human), sequence (P08581 25-1390): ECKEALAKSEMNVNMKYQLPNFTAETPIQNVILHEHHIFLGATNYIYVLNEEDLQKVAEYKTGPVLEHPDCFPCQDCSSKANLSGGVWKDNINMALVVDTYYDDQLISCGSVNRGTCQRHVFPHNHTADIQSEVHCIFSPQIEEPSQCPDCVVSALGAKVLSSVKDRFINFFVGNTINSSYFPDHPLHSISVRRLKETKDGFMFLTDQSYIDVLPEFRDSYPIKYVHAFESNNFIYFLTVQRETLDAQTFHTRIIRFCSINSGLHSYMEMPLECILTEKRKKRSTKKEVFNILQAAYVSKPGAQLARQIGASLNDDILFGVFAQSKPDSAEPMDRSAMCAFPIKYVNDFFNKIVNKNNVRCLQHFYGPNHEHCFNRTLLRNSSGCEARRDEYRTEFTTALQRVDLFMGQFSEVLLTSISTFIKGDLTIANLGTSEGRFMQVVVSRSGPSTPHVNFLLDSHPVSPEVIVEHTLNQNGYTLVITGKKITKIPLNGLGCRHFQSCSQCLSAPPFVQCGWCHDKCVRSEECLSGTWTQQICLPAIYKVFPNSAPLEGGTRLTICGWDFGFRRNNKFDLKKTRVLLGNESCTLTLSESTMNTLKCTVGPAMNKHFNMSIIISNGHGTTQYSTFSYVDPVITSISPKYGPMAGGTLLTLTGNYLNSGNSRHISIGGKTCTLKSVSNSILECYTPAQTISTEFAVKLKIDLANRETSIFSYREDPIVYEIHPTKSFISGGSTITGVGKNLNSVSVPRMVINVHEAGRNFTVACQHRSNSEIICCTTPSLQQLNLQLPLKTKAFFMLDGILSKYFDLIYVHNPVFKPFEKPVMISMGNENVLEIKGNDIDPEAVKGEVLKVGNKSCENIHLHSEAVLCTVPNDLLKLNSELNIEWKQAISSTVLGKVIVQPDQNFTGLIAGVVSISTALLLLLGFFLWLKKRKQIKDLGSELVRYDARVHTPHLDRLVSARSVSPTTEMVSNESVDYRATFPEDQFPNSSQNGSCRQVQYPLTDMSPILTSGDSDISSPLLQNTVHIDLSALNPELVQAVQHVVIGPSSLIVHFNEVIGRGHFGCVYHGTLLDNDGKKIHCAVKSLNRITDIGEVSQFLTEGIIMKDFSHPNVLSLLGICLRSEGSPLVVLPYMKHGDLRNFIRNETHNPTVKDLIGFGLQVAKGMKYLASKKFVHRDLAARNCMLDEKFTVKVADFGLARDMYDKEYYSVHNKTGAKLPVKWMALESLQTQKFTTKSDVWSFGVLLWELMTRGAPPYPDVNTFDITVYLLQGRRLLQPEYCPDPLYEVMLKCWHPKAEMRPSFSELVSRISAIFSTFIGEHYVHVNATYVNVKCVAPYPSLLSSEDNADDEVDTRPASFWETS

pIC50 (MET (human)) | pIC50 (RON (human)) | SMILES
4.70 to 5.30 | 4.70 to 5.30 | C[C@@H](Oc1c(N)ncc2[nH]ccc12)c1c(Cl)ccc(F)c1Cl [Example 1, 4-[(R)-1-(2,6-Dichloro-3-fluorophenyl)ethoxy]-1H-pyrrolo[2,3-c]pyridin-5-ylamine]
4.70 to 5.30 | < 4.70 | C[C@@H](Oc1c(N)ncc2c1ccn2C)c1c(Cl)ccc(F)c1Cl [Example 2, 4-[(R)-1-(2,6-Dichloro-3-fluorophenyl)ethoxy]-1-methyl-1H-pyrrolo[2,3-c]pyridin-5-ylamine]
≥ 5.30 | ≥ 5.30 | C[C@@H](Oc1c(N)ncc2c1ccn2CCC1CCNCC1)c1c(Cl)ccc(F)c1Cl [Example 5, 4-[(R)-1-(2,6-Dichloro-3-fluorophenyl)ethoxy]-1-(2-piperidin-4-ylethyl)1H-pyrrolo[2,3-c]pyridin-5-ylamine bis-hydrochloride]
4.70 to 5.30 | < 4.70 | C[C@@H](Oc1c(N)ncc2c1ccn2S(=O)(=O)c1ccccc1)c1c(Cl)ccc(F)c1Cl [Example 6, 1-Benzenesulfonyl-4-[(R)-1-(2,6-dichloro-3-fluorophenyl)ethoxy]-1H-pyrrolo[2,3-c]pyridin-5-ylamine]
< 4.70 | < 4.70 | Nc1ncc2[nH]ccc2c1-c1cc2ccccc2o1 [Example 7, 4-Benzofuran-2-yl-1H-pyrrolo[2,3-c]pyridin-5-ylamine]
– | < 4.70 | Nc1ncc2c(ccn2Cc2ccccc2)c1-c1cc2ccccc2o1 [Example 8, [(4-Benzofuran-2-yl)-1-benzyl-1H-pyrrolo[2,3-c]pyridin-5-yl]amine]
≥ 5.30 | ≥ 5.30 | Nc1ncc2c(ccn2CCC2CCNCC2)c1-c1cc2ccccc2o1 [Example 10, [(4-Benzofuran-2-yl)-1-(2-piperidin-4-ylethyl)-1H-pyrrolo[2,3-c]pyridin-5-yl]amine bis-hydrochloride]
